Data from paper PMC8325119, “A Novel Class of Functionalized Synthetic Fluoroquinolones with Dual Antiproliferative - Antimicrobial Capacities” (Asian Pacific Journal of Cancer Prevention : APJCP, 2021).
“And” between values parts separate entries of the source, which are not always exact repeats. Equal values may be shown once. Read-outs that look alike come from different tables or passages of the source.

Experiments:
A549 cell line = experiment: SRB cytotoxicity assay, A549 lung cancer cell line; conditions: Homo sapiens, A549, 72 h, read-out: Cytotoxicity IC50 value, A549 cell line
Experimental: (§1) All reagents and chemicals of analytical grade were obtained from Sigma (Dorset, UK); unless stated otherwise. All chemicals, reagents and solvents (of analytical grade) were used directly without further purification. MCF7 cell line ATCC® HTB-22™, T47D cell line ATCC® HTB-133™, K562 cell line ATCC® CCL-243™, Panc1 cell line ATCC® CRL-1469™. A375.S2 cell line ATCC® CRL-1872™, A549 cell line ATCC® CCL-185™, HELA cell line ATCC® CCL-2™ were cultured in Dulbecco’s modified eagle’s medium (DMEM). (DMEM) containing foetal bovine serum (FBS) (Bio Whittaker, Verviers, Belgium), 4-(2-hydroxyethyl)-1-piperazine ethane sulfonic acid (HEPES) Buffer, L-glutamine, gentamicin, penicillin, and streptomycin sulphate (Sigma, St. Luis, MO, USA), trypsin, trypan blue, Ciprofloxacin HCl from Aarti drugs Ltd/India, was a kind gift from Pharma International Company- Amman; Fluconazole from Neopharma, United Arab Emirates, a kind gift from Pharmaceutical Research Unit, Amman; Trypon soya agar (TSA), trypon soya broth (TSB), sabouraud dextrose agar (SDA) were obtained from Liofilchem (Italy) or Oxoid LTD (Basingstoke, England), they were reconstituted and sterilized by autoclave at 121 °C for 15 min.
(§2) The cytotoxicity measurements were determined using Sulforhodamine B (SRB) colorimetric assay for cytotoxicity screening. The mechanism of reduction of cell viability was adopted as described previously (Arabiyat et al., 2016a,b; 2017; Alabsi et al., 2018; Jumah, 2018; AlShahrabi et al., 2020). Human periodontal ligament fibroblasts (PDL) are a primary normal cell culture for verification of selective cytotoxicity. […] Selectivity ratio as indicative factor of the safety of compounds was calculated by dividing IC50 of tested compound on normal fibroblasts by IC50 of the same compound on specific pathological cell line (Hoffman et al., 2011).

A375.S2 cell line = experiment: SRB cytotoxicity assay, A375.S2 melanoma cell line; conditions: Homo sapiens, A375-S2, 72 h, read-out: Cytotoxicity IC50 value, A375.S2 cell line
Experimental: as §1, §2

MCF7 cell line = experiment: SRB cytotoxicity assay, MCF7 breast cancer cell line; conditions: Homo sapiens, MCF7, 72 h, read-out: Cytotoxicity IC50 value, MCF7 cell line
Experimental: as §1, §2

HELA cell line = experiment: SRB cytotoxicity assay, HELA cervical cancer cell line; conditions: Homo sapiens, HeLa, 72 h
Experimental: as §1, §2

K562 cell line = experiment: SRB cytotoxicity assay, K562 leukaemia cell line; conditions: for IC50: Homo sapiens, K562, 72 h
Experimental: as §1, §2

PANC 1 cell line = experiment: SRB cytotoxicity assay, PANC 1 pancreatic cancer cell line; conditions: Homo sapiens, PANC-1, 72 h, read-out: Cytotoxicity IC50 value, PANC 1 cell line
Experimental: as §1, §2

T47D cell line = experiment: cells; conditions: Homo sapiens, T47D, 72 h, read-out: Cytotoxicity IC50 value, T47D cell line
Experimental: as §1, §2

PDL Fibroblasts = experiment: SRB cytotoxicity on normal periodontal ligament fibroblasts, selective cytotoxicity; assay type: cell-based, Human; conditions: for IC50: Homo sapiens, Fibroblast, normal fibroblasts, SRB, 72 h, mean ± SD; for Selectivity index SI (HELA): IC50 on PDL fibroblasts divided by IC50 on HELA
Experimental: as §2

[1] = read-out: Cytotoxicity IC50 value, HELA cell line, SRB, 72 h, 0.1-200 μg/mL range, mean ± SD, value in brackets
[2] = read-out: Cytotoxicity IC50 value, HELA cell line, SRB, 72 h, 0.1-200 μg/mL range, mean ± SD, NI = lack of cytotoxicity in range
[3] = read-out: Cytotoxicity IC50 value, K562 cell line, SRB, 72 h, 0.1-200 μg/mL range, mean ± SD, value in brackets
[4] = read-out: Cytotoxicity IC50 value, K562 cell line, SRB, 72 h, 0.1-200 μg/mL range, mean ± SD, NI = lack of cytotoxicity in range
[5] = 0.1-200 μg/mL range, NI = lack of cytotoxicity in range

SMILES | IC50 (A549 cell line) | IC50 (A375.S2 cell line) | IC50 (MCF7 cell line) | IC50 (HELA cell line; [1]) | IC50 (HELA cell line; [2]) | IC50 (K562 cell line; [3]) | IC50 (K562 cell line; [4]) | Cytotoxicity IC50 value, K562 cell line (K562 cell line; SRB, 72 h, 0.1-200 μg/mL range, mean ± SD, value in brackets) | IC50 (PANC 1 cell line) | IC50 (T47D cell line) | IC50 (PDL Fibroblasts; [5]) | IC50 (PDL Fibroblasts; value in brackets) | Selectivity index SI (PANC 1) (PDL Fibroblasts; IC50 on PDL fibroblasts divided by IC50 on PANC 1) | Selectivity index SI (A375.S2) (PDL Fibroblasts; IC50 on PDL fibroblasts divided by IC50 on A375.S2) | Selectivity index SI (K562) (PDL Fibroblasts; IC50 on PDL fibroblasts divided by IC50 on K562) | Selectivity index SI (HELA) (PDL Fibroblasts)
COc1ccc(Nc2c(F)cc3c(=O)c(C(=O)O)cn(C4CC4)c3c2[N+](=O)[O-])cc1 [3c, 1-cyclopropyl-6-fluoro-7-(4-methoxy-phenylamino)-8-nitro-4-oxo-1,4-dihydro-quinoline-3-carboxylic acid] | 64.4 µM and 26.6 µg/mL | 274 µM and 113 µg/mL | 54.2 µM and 22.4 µg/mL | 81.7 µg/mL | 198 ± 11.1 µM | 32.7 µg/mL | 79.1 ± 8.69 µM | 16.83 ± 0.15 µg/mL | 40.7 µM and 16.8 µg/mL | 66 µM and 27.3 µg/mL | 107 ± 5.61 µM | 44.3 µg/mL | 2.63 | – | – | –
CCc1ccc(Nc2c(F)cc3c(=O)c(C(=O)O)cn(C4CC4)c3c2[N+](=O)[O-])cc1 [3d, 1-cyclopropyl-6-fluoro-7-(4-ethyl-phenylamino)-8-nitro-4-oxo-1,4-dihydro-quinoline-3-carboxylic acid] | > 200 µg/mL | 372 µM and 153 µg/mL | > 200 µg/mL | – | > 200 µg/mL | – | > 200 µg/mL | – | > 200 µg/mL | > 200 µg/mL | 728 ± 119 µM | 300 µg/mL | – | 1.95 | – | –
CCCCc1ccc(Nc2c(F)cc3c(=O)c(C(=O)O)cn(C4CC4)c3c2[N+](=O)[O-])cc1 [3e, 1-cyclopropyl-6-fluoro-7-(4-butyl-phenylamino)-8-nitro-4-oxo-1,4-dihydro-quinoline-3-carboxylic acid] | 64.2 µM and 28.2 µg/mL | 144 µM and 63.5 µg/mL | 428 µM and 188 µg/mL | 498 µg/mL | 1130 ± 65.6 µM | 0.71 µg/mL | 1.62 ± 0.16 µM | – | 12.2 µM and 5.38 µg/mL | 406 µM and 178 µg/mL | 711 ± 44.9 µM | 313 µg/mL | – | – | 439.01 | –
CCCCCCc1ccc(Nc2c(F)cc3c(=O)c(C(=O)O)cn(C4CC4)c3c2[N+](=O)[O-])cc1 [3f, 1-cyclopropyl-6-fluoro-7-(4-hexyl-phenylamino)-8-nitro-4-oxo-1,4-dihydro-quinoline-3-carboxylic acid] | 63.9 µM and 29.9 µg/mL | 63.1 µM and 29.5 µg/mL | 135 µM and 63.3 µg/mL | 3.48 µg/mL | 7.44 ± 0.78 µM | 30 µg/mL | 64.1 ± 4.78 µM | – | 1.67 mM and 779 µg/mL | 141 µM and 66 µg/mL | 119 ± 19.7 µM | 55.7 µg/mL | – | – | – | 16.01
COc1ccc(Nc2c(F)cc3c(=O)c(C(=O)O)cn(C4CC4)c3c2[N+](=O)[O-])c(OC)c1 [3g, 1-cyclopropyl-7-(2,4-dimethoxy-phenylamino)-6-fluoro-8-nitro-4-oxo-1,4-dihydro-quinoline-3-carboxylic acid] | > 200 µg/mL | > 200 µg/mL | > 200 µg/mL | – | > 200 µg/mL | – | > 200 µg/mL | – | > 200 µg/mL | > 200 µg/mL | > 200 µg/mL | – | – | – | – | –
COc1ccccc1Nc1c(F)cc2c(=O)c(C(=O)O)cn(C3CC3)c2c1N [4a, 8-amino-1-cyclopropyl-6-fluoro-7-(2-methoxy-phenylamino)-4-oxo-1,4-dihydro-quinoline-3-carboxylic acid] | 153 µM and 58.7 µg/mL | 72.3 µM and 27.8 µg/mL | > 200 µg/mL | 15.5 µg/mL | 40.4 ± 6.03 µM | 16.9 µg/mL | 44 ± 3.88 µM | – | 113 µM and 43.4 µg/mL | 95.8 µM and 36.8 µg/mL | 140 ± 10.5 µM | 53.8 µg/mL | – | – | – | 3.46
